| Structure (SMILES) | melting point [°C] |
| --- | --- |
| O=C(O)Cc1cc(Cl)c2c(c1)CCC(C(F)(F)F)N2 (stereo not given) | 110 to 112 |
| CCOC(=O)c1c(C)[nH]c(C)c1CC | 105 to 107 |
| CCOC(=O)C1CCc2c(sc3ccc(C)cc23)C1 (stereo not given) | 68 to 69 |
| CCNC(=O)n1nc(Oc2ncc(C(F)(F)F)cc2Cl)cc1CC | 85 to 86 |
| Cc1cn(CCC(=O)O)c(=O)[nH]c1=O | 118 to 121 |
| CC(C)c1cccc2c1O[C@@H](C(C)C)C(=S)N2CC(=O)O | 109 to 110 |
| O=S(=O)(Cl)C=Cc1ccc(Cl)c(Cl)c1 | 91 to 96 |
| CCCCCCOc1ccc(-n2cc(C(=O)OCC)cn2)cc1C#N | 93 to 94 |
| CC(C)OC(=O)NCNCN=O | 66 to 67 |
| NC(=O)[C@H](O)[C@@H](O)[C@H](O)[C@H](O)CO | 109 to 111 |
| NC(=O)c1ccc(F)c(F)c1Cl | 142 to 143 |
| O=C(CCS)N[C@@H](Cc1c[nH]cn1)C(=O)O | 219 |
| C1=Cc2c3c(ccc2=N1)=CC=N3 | 201 to 205 |
| Nc1nc(C(F)(F)F)cc(C(F)(F)F)n1 | 94.5 to 96 |
| CS(=O)(=O)C1CCCCC1Br (stereo not given) | 45 to 48 |
| CC(=O)Cc1ccc(CC2SC(=N)NC2=O)cc1 (stereo not given) | 196 to 198 |
| CC(C)(C)OC(=O)NCCOC(=O)COc1ccc(CCCCNC(N)=NC(=O)c2nc(Cl)c(N)nc2N)cc1 | 80 to 82 |
| NC(=O)NCCS(=O)Cc1ccccc1 (stereo not given) | 110 |
| CN(C(=O)CCS(C)(=O)=O)c1cn(-c2cccnc2)nc1Cl | 90 to 91 |
| CCNc1nc(-n2cc(C(=O)O)c(=O)c3cc(F)c(F)c(Cl)c32)c(F)cc1F | 236 to 242 |
| COC(=O)c1ccc(COc2cc3c(=O)n(-c4ccc(NC(=O)OC(C)(C)C)cc4)c(C(=O)OC)c(-c4cc(OC)c(OC)c(OC)c4)c3cc2OC)cc1 | 197 to 199 |

| Structure (SMILES) | melting point [°C] |
| --- | --- |
| COn1ccn(C)c1=S | 56.9 to 57.5 |
| Nc1cccc2c1CCNC2 | 153 to 154 |
| CCOC(=O)c1ccc(OCCCCC(=O)c2ccc(Cl)s2)cc1 | 87 to 89 |
| CC1=C(C)[C@]23OC[C@](C)(CCC2=C(C)C1=O)O3 | 99 to 100 |
| COC(=O)c1cc(S(C)(=O)=O)ccc1OC | 113 to 115 |
| CC(C(=S)NCN1CCOCC1)c1ccccn1 (stereo not given) | 69 |
| CNC(=O)c1cccc(NC(=O)Cc2cccc(Cl)c2)c1 | 165 to 166 |
| COc1ccc2[nH]cc3c2c1[C@@]1(C)OCCN(C)[C@@H]1C3 (relative stereo) | 200 to 202 |
| CCCCCCCCCCc1c(C(=O)OCC)sc2c1sc1c3sc(C(=O)OCC)c(CCCCCCCCCC)c3sc21 | 130 to 132 |
| Cc1cccc(N2C(=S)SCC2O)n1 (stereo not given) | 128 |
| CCOC(=O)[C@@H]1Cc2ccc([N+](=O)[O-])cc2CN1 | 94 to 95 |
| C=C1C(=O)N(C)CCC1(CC(=O)OC)c1cccc(OC)c1 (stereo not given) | 85 to 86 |
| CC(C)N1CCN(Cc2ccc(Cl)nc2)C1=N[N+](=O)[O-] | 138 to 142 |
| CCOCc1nc2c(N)nc3cc(O)ccc3c2n1CC(C)C | > 265 |
| CN(C)CCCNC(=O)c1cccc([N+](=O)[O-])c1Cl | 122 to 125 |
| Cn1nc(Oc2ccc([N+](=O)[O-])c([N+](=O)[O-])c2)c(Cl)c1C(F)(F)F | 139 to 140 |
| CCOC(=O)c1c2c(n(CC(N)=O)c1C)C(=O)C(=O)c1ccc(Br)cc1-2 | > 250 |
| CN(C)c1ccc(S(N)(=O)=O)cn1 | 133 to 138 |
| COc1cc(N)c(Cl)cc1C(=O)NC1CCN(C(C)CC(C(=O)N(C)C)(c2ccccc2)c2ccccc2)CC1OC (stereo not given) | 198 |
| CC(C)(CO)c1cc(NC(=O)C(C)(C)S(=O)(=O)CCC(F)(F)F)on1 | 162 to 163 |
| Nc1nc2c(C(CC(=O)O)C3CCCCC3)c[nH]c2c(=O)[nH]1 (stereo not given) | > 300 |

More lines, now with the values ahead:

| melting point [°C] | Structure (SMILES) |
| --- | --- |
| 142 to 143 | CC(C)(C)OC(=O)CSC(NCc1ccccc1)=C1C(=O)CCCC1=O |
| 75 to 76 | CCc1nc(-c2cccc(C)c2)c(-c2ccnc(N(C)C(=O)Cc3ccccc3)c2)s1 |
| 179 to 182 | Cc1c(NC(=O)c2ccc(-c3ccc(F)cc3)cc2)ccc2cc(C(C)N3CCCC3)cnc12 (stereo not given) |
| 102 | O=C(O)Cc1cc(C(=O)c2ccccc2F)ccc1O |
| 235 to 237 | CC1CC(=O)NN=C1c1ccc(NC(=O)C2(C)CC2)cc1 (stereo not given) |
| 218 to 220 | Cc1nc(-c2ccc(N3CCOCC3)c([N+](=O)[O-])c2)sc1C(=O)O |
| 190 to 192 | CCCCCCCNC(=O)Nc1ccc(N)cc1C(=O)NC1CCN(C(c2ccccc2)c2ccccc2)CC1 |
| 158 to 161 | Nc1ccc(C(=O)N2Cc3ccccc3Cc3ccccc32)c(Cl)c1 |
| > 260 | NC(=O)c1cc2ncccc2n1-c1ccc([N+](=O)[O-])cc1 |
| 242 to 244 | Cc1cc(C)cc(-c2nc(N)sc2-c2ccncc2)c1 |
| 150 to 151 | CC(C)c1cccc(C(C)C)c1NC(=O)CNC(c1ccc(F)cc1)c1ccc(F)cc1 |
| 209 to 210 | COc1ccc(Oc2cccc3ncnc(NC(=O)Nc4cccc(OC)c4)c23)cc1 |
| 180 | O=C(c1ccc(Cl)cc1)c1ccc2nc(Cl)cc(CCc3cccc(Cl)c3)c2c1 |
| 120 to 121 | O=C1C2=C(C(=O)N1CCO)c1ccccc1CC2 |
| 70 to 72 | Cc1ncc(-c2ccc(Cl)cc2)cc1C(=O)OC(C)(C)C |
| 179 to 180 | COc1ccn2nc(-c3ccccc3)c(-c3ccc(=O)n(C4CCCN(C)C4)n3)c2c1 (stereo not given) |
| 241 to 242 | CCCc1nc2c(N)nc3ccccc3c2n1CC1(O)CCN(C)CC1 |
| 82 to 84 | CCCCCCCCn1c(=O)n(CCN2CCN(c3ccccc3OC)CC2)c(=O)c2cscc21 |
| 228 to 232 | CC1CN(c2c(F)cc3c(=O)c(C(=O)O)cn(CCF)c3c2F)CC1CN (stereo not given) |
| 355 to 358 | Cc1nc2cc(-c3cccc(C=C4SC(=O)NC4=O)c3)cc(C34CC5CC(CC(C5)C3)C4)c2o1 |

| melting point [°C] | Structure (SMILES) |
| --- | --- |
| 160 to 163 | O=C1NCCc2c(-c3cccc(-c4ccccc4)c3)[nH]c3cccc1c23 |
| 172 to 175 | CC(=O)c1cc(N2CCOCC2)ccc1NC(=O)c1ccc(OCc2ccccc2)cc1 |
| 177 to 179 | CCc1nc2c(C)cc(C)nc2n1Cc1ccc2c(c1)CCc1ccccc1N2Cc1nnn[nH]1 |
| 108 to 110 | CC(C)Nc1cccnc1N1CCN(C(=O)c2ccc(C(=O)NCC3CCCO3)cn2)CC1 (stereo not given) |
| 194 to 196 | COc1ccc(Cl)cc1C(=O)NC1Cc2ccc(S(=O)(=O)NC(=O)NCC3CCCC3)cc2C1 (stereo not given) |
| 184 to 185 | COCC1=Nc2ccccc2C(=O)C1 |
| 194 to 195 | Nc1cc(C(=O)O)cc(S(N)(=O)=O)c1NCCc1ccccc1 |
| 219 to 221 | Cn1c2ccccc2c2nc3cccc(C=O)c3nc21 |
| 81 to 83 | O=C1C(Cl)=C(NC2CCCC2)C(=O)c2ccccc21 |
| 168 to 169 | O=c1[nH]c2ccc(-c3cccc(Cl)c3)cc2n1Cc1ccccc1 |
| 139 to 141 | O=C(NO)c1ccc(CNC(=O)c2[nH]c(-c3ccccc3)cc2-c2ccc(O)cc2)cc1 |
| 215 to 217 | CN(C)CCCOc1cc(-c2ncccc2Cl)cc2c(Nc3nccs3)n[nH]c12 |
| 96 to 98 | COc1c(N2CC[C@H]([C@@H](C)NC(=O)OC(C)(C)C)C2)c(F)cc2c(=O)n(N)c(=O)n(C3CC3)c12 |
| 303 to 308 | NNC1=NC(=O)C(=Cc2cccc(-c3cc(F)c(O)c(C45CC6CC(CC(C6)C4)C5)c3)c2)S1 |
| 242 | CNC1=NS(=O)(=O)N=C(Oc2ccccc2[N+](=O)[O-])N1C(C)C |
| 138 to 140 | CC(C)(C)NS(=O)(=O)c1ccccc1-c1ccc(CBr)c(F)c1 |
| 173 | CC(=O)OC1=C(c2nnn(Cc3ccccc3)n2)N(C)S(=O)(=O)c2ccccc21 |
| 119 to 121 | N#Cc1ccc(-c2ccc3ccccc3c2)cc1Cn1cncn1 |
| 122 | CN(C)c1cccc([N+](=O)[O-])c1C(=O)NC1CCN(C(c2ccccc2)c2ccccc2)CC1 |
| 107 to 109 | COC(=O)C1=C(c2ccc(OC)cc2)C(c2ccc(OC)cc2)OC1=O (stereo not given) |

| melting point [°C] | Structure (SMILES) |
| --- | --- |
| 192 to 194 | Nc1nc(-c2cc(Cl)ccc2Cl)nc(N2CCCCC2)n1 |
| 264 to 266 | COC(=O)c1ccc(N2C(=O)C(O)=C(C(=O)c3ccc(C)cc3)C2c2ccc(C(C)C)cc2)nc1 (stereo not given) |
| 162 to 164 | Nc1cccnc1Nc1ccc(Cl)cc1C(=O)c1ccccc1Cl |
| 140 to 141 | O=C(Nc1nc2ccccc2s1)c1ccccc1C(c1ccc(O)cc1)c1ccc(O)cc1 |
| 208 to 209 | Cc1ccc(Nc2nc(=O)c3cccnc3s2)cc1 |
| 179 to 181 | CC#CCOc1ccc(S(=O)(=O)N(Cc2cccnc2)C2(C(=O)NO)CCCCC2)cc1 |
| 189 | FC(F)(F)c1ccc(Cl)cc1CN1CCNc2ncc(-c3ccnc(N4CCNCC4)c3)cc21 |
| 199 to 201 | Cc1c(Sc2ccc(Cl)cc2)nn(-c2ccc(S(C)(=O)=O)cc2)c(=O)c1C#N |
| 60 | CSc1ccc(N2CCON(C)C2=O)cc1C(F)(F)F |
| 125 to 127 | COc1ccc2c(c1)cc(-c1nnn(Cc3cccc(OCc4ccc5ccccc5n4)c3)n1)c(=O)n2C |
| 133 to 135 | Cc1ccc(S(=O)(=O)Nc2cccc(-c3cc(O)c(SCCc4ccccc4)c(=O)o3)c2)cc1 |
| 181 to 182 | COC(=O)c1ccccc1S(=O)(=O)NC(=O)Nc1cc(C)cc(C)n1 |
| 187 to 190 | OCc1ccc(C2=C(C3CCCC3)CCC2=NO)cc1 |
| 123 to 127 | CN1CCC(c2cn(S(=O)(=O)c3ccccc3)c3ccc(OS(=O)(=O)c4ccccc4)cc23)CC1 |
| 105 | ClCCc1cc(-c2ccc(Cl)cc2)n(-c2ccc(OCc3ccc4ccccc4n3)cc2)n1 |
| 150 to 152 | Cc1ccc2[nH]c(C(=O)OCc3ccccc3)cc2c1 |
| 130 to 132 | CCOC(=O)C(C#N)=Cc1c(Cl)n(Cc2cccc(Cl)c2)c2ccccc12 |
| 172 to 175 | CN1CCC(=C2c3ccc(Cl)cc3C(=NO)Cc3cccnc32)CC1 |

Reference: a melting point compilation (Tetko et al.; mined from patent text by program, amines drawn as free bases though some values may be those of a salt)
